In the supplement of paper PMC10307832:

How the values were obtained:
Test in all cases: relative viability (nuclei count vs DMSO), 5 days (fraction); higher = more cells survive
[1] = compound: CCN1CCN(c2ccc(Nc3cc(N(C)C(=O)Nc4c(Cl)c(OC)cc(OC)c4Cl)ncn3)cc2)CC1 [BGJ398] + NC(=O)Nc1cc(-c2cccc(F)c2)sc1C(=O)N[C@H]1CCCNC1 [AZD7762] (partner 0.2 µM)
Outline: (§1)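 Lung cancer cell lines in 1536-well plates were dosed by pin tool the day after seeding, either with one drug alone or with a fixed anchor-drug dose plus five library-drug doses (not always all listed) in √10 steps. After 5 days, cells were fixed and their nuclei stained in one step (final 0.05% Triton X-100, 1% formaldehyde, 1 ug/ml Hoechst), then counted on 4× images. Relative viability is the nuclei count in treated wells divided by that in vehicle wells. Values are medians of duplicate plates.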

[2] = compound: CCN1CCN(c2ccc(Nc3cc(N(C)C(=O)Nc4c(Cl)c(OC)cc(OC)c4Cl)ncn3)cc2)CC1 [BGJ398] + CC(C)C[C@H](NC(=O)[C@H](Cc1ccccc1)NC(=O)c1cnccn1)B(O)O [Bortezomib] (partner 0.002 µM)
Outline: as §1

[3] = compound: C1=CC2=NC=CN=C2C=C1/C=C/3\C(=O)NC(=O)S3 + CC(C)C[C@H](NC(=O)[C@H](Cc1ccccc1)NC(=O)c1cnccn1)B(O)O [Bortezomib] (partner 0.002 µM)
Outline: as §1

[4] = compound: C1=CC2=NC=CN=C2C=C1/C=C/3\C(=O)NC(=O)S3 + C[C@@H](Oc1cc(-c2cnn(C3CCNCC3)c2)cnc1N)c1c(Cl)ccc(F)c1Cl [Crizotinib] (partner 1 µM)
Outline: as §1

Cell Line	relative viability ([1]; first compound 0.01 µM)	relative viability ([1]; first compound 0.03162 µM)	relative viability ([1]; first compound 0.1 µM)	relative viability ([1]; first compound 0.3162 µM)	relative viability ([1]; first compound 1 µM)	relative viability ([2]; first compound 0.01 µM)	relative viability ([2]; first compound 0.03162 µM)	relative viability ([2]; first compound 0.1 µM)	relative viability ([2]; first compound 0.3162 µM)	relative viability ([2]; first compound 1 µM)	relative viability ([3]; first compound 0.02 µM)	relative viability ([3]; first compound 0.06325 µM)	relative viability ([3]; first compound 0.2 µM)	relative viability ([3]; first compound 0.6325 µM)	relative viability ([3]; first compound 2 µM)	relative viability ([4]; first compound 0.02 µM)	relative viability ([4]; first compound 0.06325 µM)	relative viability ([4]; first compound 0.2 µM)	relative viability ([4]; first compound 0.6325 µM)	relative viability ([4]; first compound 2 µM)
HCC-44	0.98	1	1.01	1.02	0.862	0.938	0.84	0.869	0.828	0.713	0.818	0.958	0.869	0.883	0.71	0.721	0.808	0.807	0.836	0.575
HCC-78	0.609	0.536	0.557	0.61	0.608	0.373	0.59	0.468	0.472	0.455	0.497	0.378	0.588	0.346	0.275	0.341	0.309	0.296	0.337	0.25
NCI-H727	0.996	0.693	0.574	0.468	0.486	0.899	0.822	0.796	0.882	0.774	0.777	0.828	0.795	0.833	0.475	0.768	0.842	0.75	0.794	0.517
NCI-H2087	1.13	1.23	1.23	1.45	1.5	0.725	0.699	0.806	0.848	0.602	0.831	0.942	0.68	0.809	0.805	0.849	0.954	0.707	0.804	0.8
BEN	0.729	0.648	0.687	0.583	0.578	0.719	0.976	0.715	0.656	0.619	0.803	0.982	0.904	0.566	0.705	0.948	0.856	0.929	0.795	0.871
LCLC-103H	0.796	0.86	0.804	0.658	0.656	1.15	1.02	1.07	0.963	0.875	1.08	1.05	1.06	1	0.931	1.08	0.943	1.06	1.03	0.925
EKVX	0.778	0.772	0.746	0.686	0.634	0.993	1.06	1.27	0.959	1.07	0.906	1.07	0.969	0.911	0.871	0.933	0.905	0.975	0.833	0.898
LXF-289	1.02	1.03	1.06	0.978	1.06	0.951	0.918	0.918	0.888	0.896	0.977	0.985	1.05	0.941	1.02	0.766	0.735	0.785	0.777	0.858
ABC-1	0.713	0.964	0.898	0.572	1.13	0.306	0.34	0.287	0.321	0.299	0.3	0.263	0.328	0.261	0.27	1.15	1.05	1.21	0.91	1.09
NCI-H650	0.877	0.934	0.941	0.875	1.04	0.777	0.909	0.845	0.837	0.627	0.977	0.775	0.907	0.78	0.379	0.805	0.707	0.627	0.714	0.652
NCI-H2085	1.04	0.974	0.948	0.884	0.963	1.02	1.07	1.02	0.983	1.15	1.03	1.07	1.02	0.824	1.01	0.897	0.917	0.766	0.829	0.937
LC-2-ad	0.886	0.802	0.852	0.893	0.957	0.968	1.12	1.07	1.01	1.09	0.964	1.02	1.09	0.943	0.829	0.412	0.363	0.402	0.44	0.715
NCI-H1355	0.697	0.818	0.748	0.677	0.713	1.05	1.27	1.2	1.15	0.603	1.02	1.23	1.18	1.2	1.05	0.865	1.03	1.1	1.02	0.976
